The values that follow come from patent US11744825B2, “Methods of treating hypersensitive cough or itching using ion channel inhibitory compounds” (AFASCI, Inc., priority 2018, dated 2023).

Data set [1] concerns INa in rat DRG. Briefly: Inhibition of INa current in dissociated rat DRG neurons. Format: cell-based. To be noted: for IC50: rat DRG neurons, read-out: Inhibition of Currents in rat DRG: INa IC50; for Na/T: ratio of INa IC50 to T-type IC50. An excerpt:
(§1) A representative panel of AFA/EX compounds was investigated on a variety of recombinant human ion channels expressed in mammalian cells and on native ion channels in dissociated rat dorsal root ganglion (DRG) neurons. […] Thus, this panel of compounds was next investigated on their effects on itching scratching behavior in two well-established itching models in mice.

Data set [2] has as its target T1, hERG potassium (K+) channels (Homo sapiens, UniProt Q12809).
T1 construct: expressed in transfected cells
Briefly: hERG potassium channel inhibition. It is filed as cell-based.
From the text: as §1
In general terms: hERG is a cardiac potassium channel; its block is linked to QT prolongation.

In data set [3] the test system is histamine-induced itching. The data set can be described thus: Histamine-induced itching (neck model of itch) in mice. Format: in vivo, mouse. To be noted: 30 mg/kg i.p., 30 min before pruritogen. On the procedure: (§2) Neck model of itch was employed. Mice (C57BL/6, male, 3-4 months old) were shaved at the nape of the neck 2-3 days before experiments. On the day of behavioral testing mice were individually placed in small plastic chambers (12 cm L×9.5 W×12 H) that inserted into an ordinary homecage at least 30 min for habituation and recorded baseline of behavior using a video camera and a piezoelectric floor sensor operated by a validated homecage behavioral monitory system, SmartCage, which can monitor multiple mouse scratching behaviors simultaneously. Treatment with an individual test article (10 representative AFA-compounds, each at 30 mg/kg) or vehicle (0.5% hydroxyl propyl cellulose aqueous solution containing 2% DMSO) were intraperitoneally (i.p.) injected 30 min prior to itching induction. Mice were given an intradermal injection of 50 μl of a pruritogen, chloroquine or histamine into the nape of the neck. Immediately after the injection, mice were returned to their chambers and were continually recorded by the piezoelectric floor sensor for 30 min. Human manual scoring of itching scratch behavior in real-time and confirmed by video and/or piezoelectric recordings offline. The itch behavior was quantified by counting the number of scratches in a blinded to the treatment manner. A scratch was counted when a mouse lifted its hindpaw to scratch the shaved region and returned the paw to the floor or to the mouth for licking. The piezoelectric signals with a larger and regular waveform distinguished from normal homecage activity were analyzed off-line to objectively quantifying scratch episodes and durations.

Data set [4] relates to IK in rat DRG. The data set can be described thus: Inhibition of IK current in dissociated rat DRG neurons. It is filed as cell-based. To be noted: for IC50: rat DRG neurons, read-out: Inhibition of Currents in rat DRG: IK IC50; for K/T: ratio of IK IC50 to T-type IC50.
From the text: as §1

Data set [5] addresses T2, hCav3.2 Channel (Homo sapiens, UniProt O95180).
T2 construct: expressed in transfected cells
Briefly: Recombinant hCav3.2 channel expressed in mammalian cells. It is filed as cell-based. Also on record: hCav3.2 Channel % Use Dep. (use dependent inhibition): concentration or dose not given beside the values.
From the text: as §1

For data set [6], the system named is chloroquine-induced itching. Briefly: Chloroquine-induced itching (neck model of itch) in mice. Format: in vivo, mouse. To be noted: 30 mg/kg i.p., 30 min before pruritogen. On the procedure:
as §2

The target in data set [7] is hCav2.2 (Homo sapiens, UniProt Q00975). The data set can be described thus: Recombinant hCav2.2 channel expressed in mammalian cells. Format: cell-based. The note with it: for IC50: recombinant human channel.
From the text: as §1

Data set [8] concerns citric acid-induced cough. The data set can be described thus: Citric acid-induced cough in naive, conscious guinea pigs. Format: in vivo, guinea pig. To be noted: for reduction of the number of cough events: guinea pig. Here is the method:
Guinea pigs (male, 280 g body weight, Hartley Crl:HA, Charles River) were maintained in temperature 21±2° C., humidity 55±10%, 12 hours on-12 hours off light cycle, with food and water ad libitum for at least 1 week before testing. Cough was induced with citric acid aerosol inhalation and cough assessment by human manual score (Gallico, Borghi et al. 1994). Individual animals were placed in a 4 L plexiglas observation chambers continuously filled with 17.5% citric acid aerosol. Animal cough counts were recorded for 5 min. Coughs can be recognized on the basis of sound associated with a rapid inspiration followed by a rapid expiration. Only the animal with cough counts >=10 times/5 min was selected for experiment. The selected animal was then randomized divided into 5 groups, n=8/group. Five days after screening test, the representative AFA-compound, EX-17 at 0, 3, 10 and 30 mg/kg were administered 30 minutes while the benchmark dextromethorphan hydrobromide (60 mg/kg, p.o.) 60 minutes prior to the citric acid inhalation, based on their PK profiles. […] The latency to the first cough has been used as an additional parameter to evaluate antitussive property.
Using the same test protocol, three more representative EX-compounds EX-128, -130 and -132 (each 30 mg/kg, p.o.) or vehicle were tested by orally administering 30 minutes while dextromethorphan hydrobromide (60 mg/kg, p.o.) 60 minutes prior to the citric acid inhalation, based on their PK profiles. […] The latencies to the first cough were increased with three compounds and the benchmark (FIG. 2B).

For data set [9], the target named is hNav1.5 (Homo sapiens, UniProt Q14524). The data set can be described thus: Recombinant hNav1.5 channel expressed in mammalian cells. Format: cell-based.
Sequence of hNav1.5 (Q14524 whole entry): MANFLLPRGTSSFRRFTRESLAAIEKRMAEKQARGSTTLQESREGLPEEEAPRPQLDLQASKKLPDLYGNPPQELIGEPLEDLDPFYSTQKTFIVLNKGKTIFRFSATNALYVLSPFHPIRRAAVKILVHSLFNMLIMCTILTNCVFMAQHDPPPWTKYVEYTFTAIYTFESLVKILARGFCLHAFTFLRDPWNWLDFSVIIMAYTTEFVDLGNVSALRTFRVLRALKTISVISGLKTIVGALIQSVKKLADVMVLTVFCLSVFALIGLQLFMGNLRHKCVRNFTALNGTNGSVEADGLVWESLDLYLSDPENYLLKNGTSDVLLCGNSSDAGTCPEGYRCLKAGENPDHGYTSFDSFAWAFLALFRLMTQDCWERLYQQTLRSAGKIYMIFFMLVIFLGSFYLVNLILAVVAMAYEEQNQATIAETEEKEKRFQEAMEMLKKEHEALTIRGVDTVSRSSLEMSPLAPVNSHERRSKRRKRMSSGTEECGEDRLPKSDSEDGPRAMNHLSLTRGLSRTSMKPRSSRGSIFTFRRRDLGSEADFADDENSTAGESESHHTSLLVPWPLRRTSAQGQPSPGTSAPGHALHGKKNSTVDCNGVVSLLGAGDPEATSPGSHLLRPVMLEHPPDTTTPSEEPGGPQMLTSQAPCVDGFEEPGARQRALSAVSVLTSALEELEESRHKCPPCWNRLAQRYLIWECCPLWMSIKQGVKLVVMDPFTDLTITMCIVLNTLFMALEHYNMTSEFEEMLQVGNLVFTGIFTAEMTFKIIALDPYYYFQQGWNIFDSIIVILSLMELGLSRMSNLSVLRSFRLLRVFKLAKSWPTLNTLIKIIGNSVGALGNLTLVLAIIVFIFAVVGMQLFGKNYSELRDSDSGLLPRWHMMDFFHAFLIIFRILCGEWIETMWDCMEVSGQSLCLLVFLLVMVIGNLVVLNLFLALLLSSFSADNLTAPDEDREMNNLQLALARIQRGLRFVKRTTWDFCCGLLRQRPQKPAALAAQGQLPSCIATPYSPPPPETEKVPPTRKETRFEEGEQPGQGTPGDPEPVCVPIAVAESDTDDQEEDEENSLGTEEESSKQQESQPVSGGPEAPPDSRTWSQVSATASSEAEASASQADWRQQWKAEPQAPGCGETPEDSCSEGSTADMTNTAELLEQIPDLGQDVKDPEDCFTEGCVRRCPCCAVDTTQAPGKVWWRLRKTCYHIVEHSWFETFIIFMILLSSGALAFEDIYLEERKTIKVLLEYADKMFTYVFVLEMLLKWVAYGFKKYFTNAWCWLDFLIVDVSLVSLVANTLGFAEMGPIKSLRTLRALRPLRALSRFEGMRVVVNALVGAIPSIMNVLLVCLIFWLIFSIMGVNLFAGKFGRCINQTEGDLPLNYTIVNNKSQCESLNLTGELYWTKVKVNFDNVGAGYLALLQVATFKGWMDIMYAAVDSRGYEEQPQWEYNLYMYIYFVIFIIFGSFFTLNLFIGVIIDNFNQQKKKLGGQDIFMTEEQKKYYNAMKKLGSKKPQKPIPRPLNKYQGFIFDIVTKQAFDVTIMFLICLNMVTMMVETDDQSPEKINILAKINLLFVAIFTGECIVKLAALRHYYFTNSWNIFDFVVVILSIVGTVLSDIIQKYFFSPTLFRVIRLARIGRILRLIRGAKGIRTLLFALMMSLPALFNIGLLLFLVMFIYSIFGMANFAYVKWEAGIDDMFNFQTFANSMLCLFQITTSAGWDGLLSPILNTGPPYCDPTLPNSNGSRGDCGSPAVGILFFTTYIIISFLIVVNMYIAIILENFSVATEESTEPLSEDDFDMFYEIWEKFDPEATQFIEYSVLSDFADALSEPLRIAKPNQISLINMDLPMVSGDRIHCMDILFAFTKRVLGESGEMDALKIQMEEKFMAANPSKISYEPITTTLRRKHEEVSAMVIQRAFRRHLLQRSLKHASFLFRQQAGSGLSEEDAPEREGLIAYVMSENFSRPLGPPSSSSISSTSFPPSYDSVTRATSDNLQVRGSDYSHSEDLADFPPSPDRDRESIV
From the text: as §1

Data set [10] concerns the target T3, T current in rat DRG (Rattus norvegicus, UniProt Q9EQ60).
T3 construct: native ion channels in dissociated rat dorsal root ganglion (DRG) neurons; from tissue; host or cells: dissociated rat dorsal root ganglion neurons
Briefly: Inhibition of T current in dissociated rat DRG neurons. Format: cell-based. The note with it: read-out: Inhibition of Currents in rat DRG: T IC50.
From the text: as §1

Data set [11] relates to hiPSC INa. Briefly: hiPSC INa current. Format: cell-based, human.
Setting [12] is: 30 mg/kg p.o., 30 min before citric acid.
[13] abbreviates: 30 mg/kg p.o., vs vehicle-treated control.

The IC50 is the point on the concentration scale where inhibition reaches its midpoint.

Molecules are shown by their SMILES. “And” between values parts separate entries of the source, which are not always exact repeats. Equal entries are not always repeated. “Also recorded” adds a separate entry of the source.

T3 sequence (Q9EQ60 whole entry): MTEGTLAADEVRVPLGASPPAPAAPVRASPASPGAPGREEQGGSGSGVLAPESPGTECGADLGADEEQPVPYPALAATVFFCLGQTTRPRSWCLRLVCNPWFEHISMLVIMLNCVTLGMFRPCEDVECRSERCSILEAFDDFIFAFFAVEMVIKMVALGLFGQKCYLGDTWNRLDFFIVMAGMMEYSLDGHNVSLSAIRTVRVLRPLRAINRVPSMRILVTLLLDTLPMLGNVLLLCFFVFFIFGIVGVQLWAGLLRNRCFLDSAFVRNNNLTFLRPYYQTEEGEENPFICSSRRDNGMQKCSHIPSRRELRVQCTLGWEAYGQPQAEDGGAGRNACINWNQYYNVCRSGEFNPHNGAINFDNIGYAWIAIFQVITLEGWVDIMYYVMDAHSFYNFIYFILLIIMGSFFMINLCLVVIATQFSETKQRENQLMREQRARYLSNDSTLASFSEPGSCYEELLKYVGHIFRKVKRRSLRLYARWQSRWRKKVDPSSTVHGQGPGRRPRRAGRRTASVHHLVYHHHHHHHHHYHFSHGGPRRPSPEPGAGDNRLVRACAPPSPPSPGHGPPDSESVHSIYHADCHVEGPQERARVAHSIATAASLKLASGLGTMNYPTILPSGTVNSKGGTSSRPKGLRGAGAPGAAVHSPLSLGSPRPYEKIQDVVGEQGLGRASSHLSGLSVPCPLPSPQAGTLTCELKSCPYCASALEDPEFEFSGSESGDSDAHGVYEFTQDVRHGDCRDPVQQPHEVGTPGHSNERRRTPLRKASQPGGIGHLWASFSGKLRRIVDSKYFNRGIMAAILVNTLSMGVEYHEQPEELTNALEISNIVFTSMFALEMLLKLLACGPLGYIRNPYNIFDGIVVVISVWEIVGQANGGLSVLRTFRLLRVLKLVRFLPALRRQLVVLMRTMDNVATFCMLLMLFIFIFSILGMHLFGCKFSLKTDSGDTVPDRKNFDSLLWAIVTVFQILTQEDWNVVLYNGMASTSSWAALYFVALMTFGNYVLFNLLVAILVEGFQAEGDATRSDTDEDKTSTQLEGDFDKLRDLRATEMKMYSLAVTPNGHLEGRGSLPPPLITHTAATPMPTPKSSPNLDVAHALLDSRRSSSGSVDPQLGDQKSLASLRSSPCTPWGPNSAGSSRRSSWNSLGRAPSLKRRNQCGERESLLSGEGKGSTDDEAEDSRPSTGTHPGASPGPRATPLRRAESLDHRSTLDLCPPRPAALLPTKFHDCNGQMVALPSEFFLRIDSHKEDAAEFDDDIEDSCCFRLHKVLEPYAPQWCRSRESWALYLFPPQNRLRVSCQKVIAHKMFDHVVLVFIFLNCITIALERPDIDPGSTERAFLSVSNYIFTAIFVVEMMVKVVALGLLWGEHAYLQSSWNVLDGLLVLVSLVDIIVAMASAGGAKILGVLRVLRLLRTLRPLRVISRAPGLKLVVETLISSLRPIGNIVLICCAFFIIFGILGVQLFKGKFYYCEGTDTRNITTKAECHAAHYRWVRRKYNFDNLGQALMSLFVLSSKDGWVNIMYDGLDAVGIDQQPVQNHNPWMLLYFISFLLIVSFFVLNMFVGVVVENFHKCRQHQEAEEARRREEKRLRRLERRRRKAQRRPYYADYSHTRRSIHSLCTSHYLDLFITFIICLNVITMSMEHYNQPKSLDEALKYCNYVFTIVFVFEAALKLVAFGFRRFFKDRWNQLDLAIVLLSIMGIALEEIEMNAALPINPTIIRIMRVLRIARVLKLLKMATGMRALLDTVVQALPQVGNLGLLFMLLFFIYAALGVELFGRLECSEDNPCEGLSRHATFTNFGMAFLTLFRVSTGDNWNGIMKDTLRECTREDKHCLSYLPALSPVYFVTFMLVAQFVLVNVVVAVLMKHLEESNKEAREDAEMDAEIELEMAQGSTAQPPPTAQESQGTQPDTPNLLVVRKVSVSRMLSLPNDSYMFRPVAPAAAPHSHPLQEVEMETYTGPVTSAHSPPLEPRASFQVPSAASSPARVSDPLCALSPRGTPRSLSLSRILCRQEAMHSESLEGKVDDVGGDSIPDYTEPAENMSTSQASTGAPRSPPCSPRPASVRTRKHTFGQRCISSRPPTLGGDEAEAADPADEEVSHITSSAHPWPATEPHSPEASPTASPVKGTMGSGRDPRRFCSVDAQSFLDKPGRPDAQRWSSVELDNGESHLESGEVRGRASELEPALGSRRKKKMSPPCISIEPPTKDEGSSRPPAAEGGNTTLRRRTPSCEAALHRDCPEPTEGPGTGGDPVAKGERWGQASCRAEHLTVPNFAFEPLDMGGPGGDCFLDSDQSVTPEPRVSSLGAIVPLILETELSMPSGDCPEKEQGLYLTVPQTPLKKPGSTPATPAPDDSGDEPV

Take `CC(C)(C)CCN1CCC2(CC1)CC2N(CC1CC1)C(=O)c1cc(Cl)cc(Cl)c1` (stereo not drawn) [AFA-206]: in data set [1], the IC50 is 20.3 µM and the Na/T was 303. Also, the “hERG % at 1 μM” value in data set [2] turned out to be 50% at. Besides, the “inhibition of histamine-induced itching scratching behavior” value in data set [3] is given as “preferentially inhibited histamine-induced itching”. Also, in [4], the IC50 was determined as 6.8 µM and the K/T came out at 102. In data set [5], the IC50 is 0.067 µM and the “hCav3.2 Channel % Use Dep. (use dependent inhibition)” value worked out at 8.2%.
Regarding `CC(C)(C)CCN1CCC2(CC1)CC2NC(=O)Cc1cc(C(F)(F)F)cc(C(F)(F)F)c1` (stereo not drawn) [AFA-221], the “inhibition of chloroquine-induced itching scratching behavior” value was “potent and equal efficacy” in data set [6]; “effective” in [6] (listed as EX-31). In addition, the “hCav2.2 % at 3 μM” value in [7] (at 3 μM) came out at 47% at. The IC50 in data set [1] was 3.6 µM; in data set [4], approximately 30 µM; in [5], 0.084 µM. Also, in data set [1], the Na/T is 43. Further, the “hERG % at 1 μM” value in data set [2] is reported as 31% at. Further, the “inhibition of histamine-induced itching scratching behavior” value in data set [3] was “potent and equal efficacy”; in data set [3] (listed as EX-31), “effective”. The K/T in data set [4] was found to be 357. Moreover, in data set [5], the “hCav3.2 Channel % Use Dep. (use dependent inhibition)” value is 28.3%.
Take `CC(C)(C)NC(=O)CN1CCC2(CC1)CC2NC(=O)c1cc(F)cc(Cl)c1` (stereo not drawn) [AFA-279]: the “inhibition of chloroquine-induced itching scratching behavior” value in [6] is “did not produce anti-itching effects”. For the same compound, in [8] (setting [12]), the “reduction of the number of cough events” value is 39.1%. The “latency to the first cough” value in data set [8] (setting [13]) is given as “trend of increasing the latency, but not reaching significant difference”. Besides, the IC50 in data set [7] was more than 10 µM; in [1] it was more than 100 µM; in data set [2], 6.7 µM; in data set [9], 76.4 µM; in data set [4], more than 100 µM; in data set [10] it was 0.19 µM. Besides, the figures for the IC50 in [5] and in [11] were 0.113 µM and 83.5 µM, respectively. Further, the Na/T in data set [1] is recorded as more than 1115. The “inhibition of histamine-induced itching scratching behavior” value in data set [3] was “did not produce anti-itching effects”. For the same compound, the K/T in data set [4] was more than 1115. For the same compound, the “hCav3.2 Channel % Use Dep. (use dependent inhibition)” value in data set [5] worked out at 21.3%.
Consider `CC(C)(C)NC(=O)CN1CCC2(CC1)CC2NC(=O)c1cc(F)cc(C(F)(F)F)c1` (stereo not drawn) [AFA-281], for which the “inhibition of chloroquine-induced itching scratching behavior” value in [6] was “potent and equal efficacy”; in data set [6] (listed as EX-130) it was “effective”. Moreover, the “reduction of the number of cough events” value in [8] (setting [12]) is given as 33%. Further, the “latency to the first cough” value in [8] (setting [13]) is listed as “trend of increasing the latency, but not reaching significant difference”. Moreover, the IC50 in data set [7] was more than 30 µM; in data set [1], more than 100 µM; in [2], 8 µM; in data set [9] it was more than 100 µM; in [4] it was more than 100 µM; in data set [10], 0.6 µM. Besides, the figures for the IC50 in [5] and in data set [11] were 0.179 µM and 31.4 µM, respectively. Also, the Na/T in data set [1] is on record as more than 557. The “inhibition of histamine-induced itching scratching behavior” value was “potent and equal efficacy” in data set [3]; “effective” in [3] (listed as EX-130). In addition, in data set [4], the K/T is reported as more than 557. Moreover, the “hCav3.2 Channel % Use Dep. (use dependent inhibition)” value in data set [5] was 13.9%.
`CC(C)(C)NC(=O)CN1CCC2(CC1)CC2C(=O)Nc1cc(C(F)(F)F)cc(C(F)(F)F)c1` (stereo not drawn) [AFA-322]: the “reduction of the number of cough events” value in data set [8] (setting [12]) came out at 15.7%. Further, the “latency to the first cough” value in data set [8] (setting [13]) is “trend of increasing the latency, but not reaching significant difference”. For the same compound, the IC50 was 3.09 µM in data set [7]; 14.3 µM in [1]; 9.2 µM in data set [2]; 23.5 µM in data set [9]; more than 100 µM in data set [4]; 0.15 µM in data set [10]. Moreover, the IC50 was 0.138 µM in data set [5] and 51.6 µM in data set [11]. The Na/T in [1] stood at 103. Moreover, the “inhibition of histamine-induced itching scratching behavior” value in data set [3] is reported as “preferentially inhibited histamine-induced itching”. The K/T in data set [4] is more than 723. Also, in data set [5], the “hCav3.2 Channel % Use Dep. (use dependent inhibition)” value is on record as 25.6%.
`C[C@H]1CN(S(=O)(=O)c2ccc(C(F)(F)F)cc2)CCN1C(=O)c1ccc2cccnc2c1` [AFA-353]: the IC50 in data set [7] is 8.87 µM; in data set [1], more than 100 µM; in data set [4] it was more than 100 µM; in data set [5] it was 10.4 µM. The Na/T in data set [1] was more than 10. For the same compound, the “hERG % at 1 μM” value in data set [2] is 23% at. The K/T in [4] is listed as more than 10.
In the case of `O=C(NC1CC12CCN(S(=O)(=O)c1ccc(C(F)(F)F)cc1)CC2)c1cc(C(F)(F)F)cc(C(F)(F)F)c1` (stereo not drawn) [AFA-358], the “inhibition of chloroquine-induced itching scratching behavior” value in [6] is “effective; also recorded: potent and equal efficacy”. In addition, the IC50 in [7] is 0.74 µM; in data set [1], more than 30 µM; in data set [4], more than 30 µM; in data set [5], 1.01 µM. For the same compound, the Na/T in data set [1] was more than 30. Further, the “hERG % at 1 μM” value in [2] is recorded as 59% at. In data set [3], the “inhibition of histamine-induced itching scratching behavior” value was “effective; also recorded: potent and equal efficacy”. Further, the K/T in [4] is more than 30.
`CC(C)(C)NC(=O)CN1CCC2(CC1)CC2NC(=O)c1ccc(Cl)cc1F` (stereo not drawn) [EX-17]: the “reduction of the number of cough events” value is given as 7.2% in data set [8] (3 mg/kg p.o., 30 min before citric acid); 23.3% in [8] (10 mg/kg p.o., 30 min before citric acid); 36.8% in [8] (setting [12]). In addition, the “latency to the first cough” value is “reached significance; also recorded: significant increases” in data set [8] (setting [13]) and “increases in the latencies of the first cough in a dose-dependent manner” in data set [8] (p.o., EX compounds 3-30 mg/kg, dextromethorphan 60 mg/kg).
On to `COc1ccc2c(c1)[C@]13CCCC[C@@H]1[C@H](C2)N(C)CC3` [dextromethorphan, reference compound], for which, in [8] (60 mg/kg p.o., 60 min before citric acid), the “reduction of the number of cough events” value is 40.0% and 42.6%. For the same compound, the “latency to the first cough” value is listed as “significant increases; also recorded: trend of increasing the latency, but not reaching significant difference” in data set [8] (60 mg/kg p.o., vs vehicle-treated control) and “reached significance” in [8] (60 mg/kg p.o., vs vehicle-treated control, listed as dextromethorphan hydrobromide).
